# Data from US9975944B2, “Synthetic peptides for the treatment of autoimmune diseases” (TEL HASHOMER MEDICAL RESEARCH INFRASTRUCTURE AND SERVICES …, priority 2013, dated 2018).
# Tests used:
# TNF-α = TNF-α gene expression in mononuclear cells derived from synovial fluid of RA patients, real-time PCR; format: cell-based, human; details: 24 h, compared to the non-citrullinated peptides
# Protocol: To assess the effect of the Cit-ME peptide (SEQ ID NO: 1) on inflammatory related genes expression, peripheral blood mononuclear cells derived from synovial fluid rheumatoid arthritis patients were incubated with the Cit-ME multi-epitope citrullinated peptide for 24 h. The effect of the peptide on gene expression was compared also to the effect of infliximab, a TNF-α blocker, which is an antirheumatic drug that acts as an anti-inflammatory compound. […] Results were determined by real-time PCR.
# [1] = system: CD4+CD25+FoxP3+ regulatory T cells; test: Regulatory T cells in splenocytes of AIA rats, FACS; format: in vivo, rat
# Excerpt: Splenocytes from rats at day 28 post disease induction were stained with anti-CD4-FITC, anti-CD25-APC, and anti-Foxp3-PE (eBioscience) mAbs and analyzed by FACS. In representative outputs as shown in FIG. 12A-C, Regulatory T cells subpopulation was higher in Cit-ME treated rats (9%), compared to 7% and 6.2% in Non-Cit-ME peptide and untreated rats, respectively. Statistical analysis of the results is shown in FIG. 12D (Cit-ME n=9, Non-Cit-ME n=11, untreated rats n=7).
# FAS receptor = test: FAS mRNA expression in splenocytes of AIA rats, RT-PCR; format: in vivo, rat; details: compared to Non-Cit-ME and control groups
# Protocol: To examine whether Cit-ME affects apoptosis through the FAS receptor pathway, FAS mRNA expression in splenocytes was evaluated (FIG. 14F), using the following RT-PCR primers: forward 5′-TGGCTGTCCTGCCTCTGGT-3′ (SEQ ID NO: 19) and reverse 5′-[…]-3′ (SEQ ID NO: 20).
# AIA rats = test: Adjuvant-Induced Arthritis (AIA) in rats, paw swelling and clinical signs; format: in vivo, rat
# pathogenic Th17 cells = test: Pathogenic Th17 cell proportion in PBMC of RA patients, FACS; format: cell-based, human; details: 48 hours, PMA, ionomycin and brefeldin A in last 4 hours, compared with non-citrullinated matched peptide
# Protocol: To assess ability of the citrullinated peptides to affect the pathogenic Th17 cells population proportion, peripheral blood mononuclear cells of rheumatoid arthritis patients were cultured in the presence of citrullinated peptides, non-citrullinated peptides and Infliximab for 48 hours. In the last 4 hours phorbol12-myristate 13-acetate (PMA), ionomycin and brefeldin A were added to the culture. Thereafter cells were stained with antibodies against CD3 and IL-17. As shown in FIGS. 7A-7H, significant down-regulation in the mean percentage of pathogenic Th17 cells was detected following incubation with the citrullinated peptides: decrease of 21% (Fil-Cit; E), 5% (β-Fib-Cit; F), and 26% (Cit-ME; G) as compared with the non-citrullinated matched peptides (FIG. 7A-7C, respectively). Mean percentage of pathogenic Th17 cells in the presence of Infliximab was decreased by 48% (FIG. 7H) as compared to medium (FIG. 7D).
# CD4+IL-17+ T cells = CD4+IL-17+ T cells in the spleen of AIA rats, FACS; format: in vivo, rat
# Protocol: Distribution of pathogenic CD4^+IL-17^+ T cells in the spleen of experimental rats was assessed by FACS.
substance,measurement,setting,value
VCitLCitSSVESTCitGRSCitPAPPPACitGLT [Cit-ME],expression of TNF-α,TNF-α,down-regulated
same,"percentage of CD4+CD25+FoxP3+ regulatory T cells subset, statistical analysis","[1]; spleens of AIA rats, day 28, untreated 7.17±0.31",8.13±0.17%
same,"Regulatory T cells subpopulation, representative outputs","[1]; splenocytes of AIA rats, day 28 post disease induction, untreated 6.2%",9%
same,mean relative expression level of FAS mRNA,FAS receptor,significantly higher
same,mean paw swelling / arthritis signs,"AIA rats; AIA Lewis female rats, 10 subcutaneous injections of 300 μg/rat on alternate days from day 7, up to day 21 post disease induction",significant reduced mean paw swelling
same,maximum value of mean paw diameter,"AIA rats; AIA rats, 8 subcutaneous injections of 300 μg per rat on alternate days from day 7, mean±SE, untreated 4.61±0.17 on day 14",3.81±0.11 mm
same,arthritis severity / symptoms at day 27 after disease induction,"AIA rats; AIA rats, 10 subcutaneous injections of 300 μg/rat on alternate days, compared with β-Fib-Cit and untreated rats",reduced the arthritis severity
same,decrease in mean percentage of pathogenic Th17 cells,pathogenic Th17 cells,26%
same,"population of CD4+IL-17+-expressing splenocytes, statistical analysis","CD4+IL-17+ T cells; AIA rats, n=8, untreated 1.14±0.2",0.68±0.1
same,"IL-17+ population, representative results","CD4+IL-17+ T cells; spleen of AIA rats, untreated 2%",0.6%
